≈ marks a conversion by molar mass, not a printed value.
Key:
Assay type in all cases: cell-based
[1] = test system: E. coli (EN122); assay: MIC of E. coli strain used in the in vivo efficacy studies; settings: Escherichia coli
Description: (§1) Minimum inhibitory concentration (MIC) values were determined according to the Clinical Laboratory Standards Institute guidelines. Frequency of resistance was determined by plating ~5 × 10^8 bacterial cells on agar-solidified media plates containing test compound at concentrations corresponding to four times the measured solid-media MIC of the strains. Colonies were counted after 24 h, restreaked onto media containing the same concentration of compound, and the MIC remeasured against the assayed compound. Genomic DNA from isolated clones was sequenced by paired-end sequencing on an Illumina MiSeq device. Complete experimental details available in SI Appendix.
(§2) Lantmännen) and water. […]
(§3) Safety testing in mice. […] Mice were extensively observed and toxicity signs were scored after 0-2, 5, […]
(§4) Plasma sample analysis by UPLC/MS/MS. Concentrations of EBL-3599 and EBL-3647 in mouse blood plasma were measured by liquid chromatography tandem mass spectrometry (LC/MS/MS) in positive electrospray ionization (ESI+) in multi reaction monitoring (MRM) mode. […]
(§5) A sample volume of 20 μL was transferred into a plastic tube and mixed with 300μL acetonitrile/methanol mixture (3:1, v/v) to precipitate proteins. […] Bioanalysis of samples from each mouse were measured in duplicate and the results averaged. […]

[2] = test system: K. pneumoniae (EN124); assay: MIC of K. pneumoniae strain used in the in vivo efficacy studies; settings: Klebsiella pneumoniae
Description: as §1, §2, §3, §4, §5

[3] = test system: efflux-defective E. coli; assay: MIC in phenotypic screen, tolC-inactivated E. coli; settings: Escherichia coli, read-out: MIC against efflux-defective E. coli
From the text: In a search for new drug targets and starting points for antibiotic discovery, we initiated a series of phenotypic screens, based on publicly available chemical libraries and information gathered from the literature, focusing on compounds for which there was some evidence of Gram-negative antibacterial activity. In our initial screens, we evaluated activity against tolC-inactivated mutants of E. coli. The TolC protein is the outer membrane channel protein that is required for activity of several of the most important efflux pumps in E. coli, and inactivation of TolC essentially abolishes efflux pump activity ([27]). […] We successfully isolated resistant mutants against this compound. […] We resynthesized the AZ1 compound and confirmed the involvement of LpxH by WGS of selected resistant clones (SI Appendix, Table S1) ([24]–[26]). Both our own, and previously published mutations, map to the lipid X (enzymatic reaction product) binding site of LpxH (SI Appendix, Table S1 and Fig. S1A) ([23]). […]
Minimum inhibitory concentration (MIC) values were determined according to the Clinical Laboratory Standards Institute guidelines. Frequency of resistance was determined by plating ~5 × 10^8 bacterial cells on agar-solidified media plates containing test compound at concentrations corresponding to four times the measured solid-media MIC of the strains. […]

[4] = test system: efflux-defective E. coli; assay: Frequency of resistance, efflux-defective E. coli; settings: not told
Description: as §1, with “Appendix. […]” for “Appendix.”
Minimum inhibitory concentration (MIC) determination. […] Appropriate inoculation suspension density was assessed using a Sensititre Nephelometer with a Sensititre 0.5 […]
Frequency of Resistance. Frequency of resistance was assessed by spread plating between […] cfu of a freshly-grown culture of the strain of interest on plates containing a concentration of compound corresponding to 4 times the MIC of the strain (as determined by agar-dilution MIC). […] The frequency of resistance was determined by dividing the number of colonies obtained on the selective plates after 24 hours of growth by the calculated total population plated. […]

Cc1cc(C#N)nc(N2CCN(S(=O)(=O)c3ccc(NC(=O)c4cc(CN5CC(CN)C5)ccc4N(C)S(C)(=O)=O)cc3)CC2)n1 [EBL-3647]
MIC [1]: 4 µg/mL
MIC [2]: 4 µg/mL

CN(c1ccccc1C(=O)Nc1ccc(S(=O)(=O)N2CCCCC2)cc1)S(C)(=O)=O [JEDI-852]
MIC [3]: 4 to 8 µg/mL (≈ 8.86 to 17.7 µM)

CN(c1ccccc1C(=O)Nc1ccc(S(=O)(=O)N2CCN(c3cccc(C(F)(F)F)c3)CC2)cc1)S(C)(=O)=O [JEDI-1444]
Frequency of resistance in efflux-defective E. coli [4]: low frequency of resistance

— article PMC11009625, “Antibiotic class with potent in vivo activity targeting lipopolysaccharide synthesis in Gram-negative bacteria” (Proceedings of the National Academy of Sciences of the …, 2024)
